This experiment deals with IL-1β. Put plainly: In vitro IL-1β inhibition in PMA-differentiated, LPS-primed, ATP-stimulated THP1 monocytes. The format is cell-based. Particulars: primed with 500 ng/mL LPS 4 hrs, compound 30 min, 5 mM ATP 1 hr, IL-1b in supernatant, read-out: IC50 (in vitro IL-1β inhibitory activity). The procedure:
THP1 monocytes were differentiated with PMA (100 ng/mL) and incubated at 37° C. for 20 hours in presence of 5% CO2. 2×10^5 differentiated cells were plated per well of 96 well tissue culture plates. The cells were primed using 500 ng/mL Lipopolysaccharide and incubating for 4 hrs under the same condition. The cells were then treated with various concentrations of the compounds for 30 min followed by treatment with 5 mM ATP for 1 hr. The supernatants were collected and analysed by IL-1b (Mabtech Cat #3415-1H-20) or TNF-a (Mabtech; Cat #3510-1H-20) detection kit. The data were analyzed using GraphPad Prism V7.0. Dose Response Curve (DRC) was constructed to determine the IC50 value by fitting percentage […] data to the GraphPad Prism using nonlinear regression analysis.

[1] abbreviates: Homo sapiens, THP-1, THP1 cells differentiated with PMA 100 ng/mL.

Where a name gives a salt, the structure may show the parent alone. Read-outs that look alike come from different tables or passages of the source.

The term IC50 denotes the point on the concentration scale where inhibition reaches its midpoint.

With `CC(C)(C)OC(=O)N1CCC[C@]1(C)/C=C/S(=O)(=NC#N)NC(=O)Nc1c2c(cc3c1CCC3)CCC2` (stereo partly drawn) [Example 13, tert-butyl (2R)-2-((E)-2-(N′-cyano-N-((1,2,3,5,6,7-hexahydro-s-indacen-4-yl)carbamoyl)sulfamidimidoyl)vinyl)-2-methylpyrrolidine-1-carboxylate], under setting [1], the IC50 was 4 µM.
Turning to `CN1CCC[C@@]1(C)/C=C/S(=O)(=NC#N)NC(=O)Nc1c2c(cc3c1CCC3)CCC2` (stereo partly drawn) [Example 7, (E)-N′-cyano-2-((S)-1,2-dimethylpyrrolidin-2-yl)-N-((1,2,3,5,6,7-hexahydro-s-indacen-4-yl)carbamoyl)ethene-1-sulfonimidamide], under setting [1], the IC50 was found to be 1.5 µM.
As to `N#CN=S(=O)(/C=C/[C@H]1CCCN1S(=O)(=O)c1ccccc1C#N)NC(=O)Nc1c2c(cc3c1CCC3)CCC2` (stereo partly shown) [Example 9], under setting [1], the IC50 worked out at 11 µM.
Turning to `C[C@]1(/C=C/S(=O)(=NC#N)NC(=O)Nc2c3c(cc4c2CCC4)CCC3)CCCN1` (stereo partly drawn) [Example 14, (E)-N′-cyano-N-((1,2,3,5,6,7-hexahydro-s-indacen-4-yl)carbamoyl)-2-((R)-2-methylpyrrolidin-2-yl)ethene-1-sulfonimidamide hydrochloride], the IC50 under setting [1] stood at 9 µM.
For `CN1CCC[C@]1(C)/C=C/S(=O)(=NC#N)NC(=O)Nc1c2c(cc3c1CCC3)CCC2` (stereo partly drawn) [Example 15, (E)-N′-cyano-2-((R)-1,2-dimethylpyrrolidin-2-yl)-N-((1,2,3,5,6,7-hexahydro-s-indacen-4-yl)carbamoyl)ethene-1-sulfonimidamide], the IC50 under setting [1] worked out at 2.1 µM.
As to `N#CN=S(=O)(/C=C/[C@H]1CCCN1)NC(=O)Nc1c2c(cc3c1CCC3)CCC2` (stereo partly drawn) [Example 10, (E)-N′-cyano-N-((1,2,3,5,6,7-hexahydro-s-indacen-4-yl)carbamoyl)-2-((R)-pyrrolidin-2-yl)ethene-1-sulfonimidamide hydrochloride], the IC50 under setting [1] was 6.4 µM.
Turning to `C[C@@]1(/C=C/S(=O)(=NC#N)NC(=O)Nc2c3c(cc4c2CCC4)CCC3)CCCN1` (stereo partly drawn) [Example 20, (E)-N′-cyano-N-((1,2,3,5,6,7-hexahydro-s-indacen-4-yl)carbamoyl)-2-((S)-2-methylpyrrolidin-2-yl)ethene-1-sulfonimidamide], where the note is “THP1 cells differentiated with PMA 100 ng/mL”, the concentration for half-maximal inhibition (IC50) came out at 3.2 µM.
`CC(C)CN1CCC[C@@]1(C)/C=C/S(=O)(=NC#N)NC(=O)Nc1c2c(cc3c1CCC3)CCC2` (stereo partly drawn) [Example 24, (E)-N′-cyano-N-((1,2,3,5,6,7-hexahydro-s-indacen-4-yl)carbamoyl)-2-((S)-1-isobutyl-2-methylpyrrolidin-2-yl)ethene-1-sulfonimidamide]: the half-inhibitory concentration (IC50) under setting [1] was 15 µM.
Turning to `N#CN=S(=O)(/C=C/[C@H]1CCCN1S(=O)(=O)C1CCCCC1)NC(=O)Nc1c2c(cc3c1CCC3)CCC2` (stereo partly drawn) [Example 8, (E)-N′-cyano-2-((R)-1-(cyclohexylsulfonyl)pyrrolidin-2-yl)-N-((1,2,3,5,6,7-hexahydro-s-indacen-4-yl)carbamoyl)ethene-1-sulfonimidamide], the IC50 under setting [1] was 12 µM.
Consider `C[C@@]1(/C=C/S(=O)(=NC#N)NC(=O)Nc2c3c(cc4c2CCC4)CCC3)CCCN1C(N)=O` (stereo partly drawn) [Example 31, (2S)-2-((E)-2-(N′-cyano-N-((1,2,3,5,6,7-hexahydro-s-indacen-4-yl)carbamoyl)sulfamidimidoyl)vinyl)-2-methylpyrrolidine-1-carboxamide], for which the IC50 under setting [1] amounted to 9.2 µM.
On to `CC(C)(C)OC(=O)N1CCC[C@@]1(C)/C=C/S(=O)(=NC#N)NC(=O)Nc1c2c(cc3c1CCC3)CCC2` (stereo partly drawn) [Example 3, tert-butyl (2S)-2-((E)-2-(N′-cyano-N-((1,2,3,5,6,7-hexahydro-s-indacen-4-yl)carbamoyl)sulfamidimidoyl)vinyl)-2-methylpyrrolidine-1-carboxylate], for which the IC50 under setting [1] stood at 19 µM.
Regarding `C[C@@]1(/C=C/S(=O)(=NC#N)NC(=O)Nc2c3c(cc4c2CCC4)CCC3)CCCN1CC1CC1` (stereo partly drawn) [Example 21, (E)-N′-cyano-2-((S)-1-(cyclopropylmethyl)-2-methylpyrrolidin-2-yl)-N-((1,2,3,5,6,7-hexahydro-s-indacen-4-yl)carbamoyl)ethene-1-sulfonimidamide], the IC50 under setting [1] worked out at 4.6 µM.
On to `CC(C)(C)OC(=O)N1CCCC1/C=C/S(=O)(=NC#N)NC(=O)Nc1c2c(cc3c1CCC3)CCC2` [Example 34, tert-butyl (2R)-2-((E)-2-(N′-cyano-N-((1,2,3,5,6,7-hexahydro-s-indacen-4-yl)carbamoyl)sulfamidimidoyl)vinyl)pyrrolidine-1-carboxylate], for which the half-maximal inhibitory concentration (IC50) under setting [1] is 19 µM.
On to `C[C@@]1(/C=C/S(=O)(=NC#N)NC(=O)Nc2c3c(cc4c2CCC4)CCC3)CCCN1C1CCC1` (stereo partly drawn) [Example 19, (E)-N′-cyano-2-((S)-1-cyclobutyl-2-methylpyrrolidin-2-yl)-N-((1,2,3,5,6,7-hexahydro-s-indacen-4-yl)carbamoyl)ethene-1-sulfonimidamide], for which the IC50 under setting [1] worked out at 4.6 µM.
`CC(=O)N1CCC[C@@]1(C)/C=C/S(=O)(=NC#N)NC(=O)Nc1c2c(cc3c1CCC3)CCC2` (stereo partly drawn) [Example 25, (E)-2-((S)-1-acetyl-2-methylpyrrolidin-2-yl)-N′-cyano-N-((1,2,3,5,6,7-hexahydro-s-indacen-4-yl)carbamoyl)ethene-1-sulfonimidamide]: the IC50 under setting [1] was found to be 19 µM.
Turning to `CN1CCC[C@@H]1/C=C/S(=O)(=NC#N)NC(=O)Nc1c2c(cc3c1CCC3)CCC2` (stereo partly drawn) [Example 11, (E)-N′-cyano-N-((1,2,3,5,6,7-hexahydro-s-indacen-4-yl)carbamoyl)-2-((R)-1-methylpyrrolidin-2-yl)ethene-1-sulfonimidamide], the IC50 under setting [1] turned out to be 2.3 µM.
With `C[C@@]1(/C=C/S(=O)(=NC#N)NC(=O)Nc2c3c(cc4c2CCC4)CCC3)CCCN1` (stereo partly drawn) [Example 4, (E)-N′-cyano-N-((1,2,3,5,6,7-hexahydro-s-indacen-4-yl)carbamoyl)-2-((S)-2-methylpyrrolidin-2-yl)ethene-1-sulfonimidamide hydrochloride], the IC50 (THP1 cells differentiated with PMA 100 ng/mL, hydrochloride) came out at 20 µM.
With `CC(C)N1CCC[C@@]1(C)/C=C/S(=O)(=NC#N)NC(=O)Nc1c2c(cc3c1CCC3)CCC2` (stereo partly drawn) [Example 17, (E)-N′-cyano-N-((1,2,3,5,6,7-hexahydro-s-indacen-4-yl)carbamoyl)-2-((S)-1-isopropyl-2-methylpyrrolidin-2-yl)ethene-1-sulfonimidamide], the IC50 under setting [1] came out at 11 µM.
Turning to `C[C@@]1(/C=C/S(=O)(=NC#N)NC(=O)Nc2c3c(cc4c2CCC4)CCC3)CCCN1C1CCCC1` (stereo partly drawn) [Example 18, (E)-N′-cyano-2-((S)-1-cyclopentyl-2-methylpyrrolidin-2-yl)-N-((1,2,3,5,6,7-hexahydro-s-indacen-4-yl)carbamoyl)ethene-1-sulfonimidamide], under setting [1], the concentration for half-maximal inhibition (IC50) amounted to 18 µM.
With `CCN1CCC[C@@]1(C)/C=C/S(=O)(=NC#N)NC(=O)Nc1c2c(cc3c1CCC3)CCC2` (stereo partly drawn) [Example 26, (E)-N′-cyano-2-((S)-1-ethyl-2-methylpyrrolidin-2-yl)-N-((1,2,3,5,6,7-hexahydro-s-indacen-4-yl)carbamoyl)ethene-1-sulfonimidamide], the IC50 under setting [1] worked out at 19 µM.
Turning to `C[C@@]1(/C=C/S(=O)(=NC#N)NC(=O)Nc2c3c(cc4c2CCC4)CCC3)CCCN1Cc1nccs1` (stereo partly drawn) [Example 29, (E)-N′-cyano-N-((1,2,3,5,6,7-hexahydro-s-indacen-4-yl)carbamoyl)-2-((S)-2-methyl-1-(thiazol-2-ylmethyl)pyrrolidin-2-yl)ethene-1-sulfonimidamide], the 50% inhibitory concentration (IC50) under setting [1] is 15 µM.
`C[C@@]1(/C=C/S(=O)(=NC#N)NC(=O)Nc2c3c(cc4c2CCC4)CCC3)CCCN1` (stereo partly drawn) [Example 22, (E)-N′-cyano-N-((1,2,3,5,6,7-hexahydro-s-indacen-4-yl)carbamoyl)-2-((S)-2-methylpyrrolidin-2-yl)ethene-1-sulfonimidamide 2,2,2-trifluoroacetate]: the IC50 (THP1 cells differentiated with PMA 100 ng/mL, 2,2,2-trifluoroacetate) was 8.9 µM.

Values taken from patent US12377070B2, “Substituted sulfoximine derivatives” (CADILA HEALTHCARE LIMITED, priority 2019, dated 2025).
